In patent US12376589B2, “Chryseobacterium insect inhibitory microbial compositions and methods of making and using” (priority 2021, dated 2025):
≈ marks a conversion by molar mass, not a printed value. Entries after “also recorded” stand apart in the source; their conditions may differ. Read-outs that look alike come from different tables or passages of the source.

Experiments:
[1] = test system: Trichoplusia ni (cabbage looper); conditions: for Mortality, Trichoplusia ni (cabbage looper): 7 days diet overlay, neonates, mean of three experiments (each N=16), Abbott's formula; for Mortalities (%) after 7 days of treatment (Abbott’s Correction), CL: Trichoplusia ni (cabbage looper)
Description: (§1) Lepidopteran bioassays. Lepidopteran bioassays were performed at Benzon Research, Inc. (Carlisle, PA). 3,3′-Diindolylmethane samples were solubilized in dimethyl sulfoxide (DMSO). Samples were then frozen and shipped to Benzon. Samples were resuspended with 9× volumes of water before application to the assay well. The final DMSO concentration in the assay well was 2%. PLU6 extract samples were prepared as a series of three 1:5 dilutions in dimethyl sulfoxide. Samples were then further diluted with fresh NYSM broth, then shipped to Benzon Research for use in a diet overlay assay. Assays were performed using neonate larvae of 14 different Lepidopteran species (Anticarsia gemmatalis (velvetbean caterpillar), Diatraea grandiosella (southwestern corn borer), Diatraea saccharalis (sugarcane borer), Ostrinia nubilalis (European corn borer), Trichoplusia ni (cabbage looper), Chrysodeixis includens (soybean looper), Spodoptera exigua (beet armyworm), Spodoptera frugiperda (fall armyworm), Spodoptera eridania (southern armyworm), Chloridia virescens (tobacco budworm), Helicoverpa zea (corn earworm), Agrotis ipsilon (black cutworm), Cydia pomonella (codling moth), Plutella xylostella (diamondback moth) with an N=16 or N=32, apart from P. xylostella, for which third instar larvae were used. A diet-surface overlay format was used, in which 500 microliters of diet was placed in each well. One hundred microliters of sample was then pipetted into each well and allowed to dry. A DMSO control was included with each set of samples. An internal Btk (Bacillus thurengiensis kurstaki) standard at a concentration of 1000 ppm was used as a positive control, and water was used as a negative control.
(§2) Experiments were conducted in which mortality of lepidopteran larvae was measured after 7 days of diet overlay treatment with 3,3′-diindolylmethane at the concentrations indicated in Table 3. Mean mortalities and standard deviations were calculated from three independent experiments (each N=16). For each experiment, mortalities were corrected using Abbott's formula (Abbott (1987) “Method of computing the effectiveness of an insecticide” J. American Mosquito Control Association 2: 302-03, incorporated herein by reference). For all species except Plutella xylostella, neonates were used. For P. xylostella, third instar larvae were used. The positive control used was 1000 ppm of Bacillus thuringiensis kurstaki.

[2] = test system: Culex quinquefasciatus larvae; assay: whole plant or invertebrate
Excerpt: (§3) Measuring potency of 3,3-diindolylmethane and 3-((1H-indol-2-yl)methyl)-1H-indole. 3,3′-Diindolylmethane (also called arundine, CAS number: 1968-05-4) was purchased from MILLIPORESIGMA (cat #74601) and Cayman Chemical (catalog #15927). 3-((1H-indol-2-yl)methyl)-1H-indole (CAS number: 114648-66-7) was purchased from Ambeed (catalog #A735658). Compounds were resuspended in dimethyl sulfoxide (DMSO). For collecting data to construct dose curves for 3,3-diindolylmethane and 3-((1H-indol-2-yl)methyl)-1H-indole, a series of twenty 1:2 dilutions was made to test in bioassays, establish a dose curve, and determine the LC50 value.
Culex quinquefasciatus bioassays with compounds. First or second instar Culex quinquefasciatus larvae were purchased from Benzon Research, Inc. (Carlisle, PA). Assays were performed with third instar larvae. Larvae were washed with sterile water before transfer to 24-well assay plates containing 1 mL of sterile water in each well. Each well contained 5 larvae. Compound dilutions were made in DMSO, topped with sterile NYSM broth and applied to each assay well. The final DMSO concentration was 1% in each assay well. Larvae mortality was scored for each well at 24-hour timepoints after application.

Aedes aegypti larvae = assay: whole plant or invertebrate; conditions: for LC50: Aedes aegypti
Excerpt: as §3
Aedes aegypti bioassays with compounds. Assays were performed using second or third instar larvae, with biological replication. Larvae were washed with sterile water before transfer to 24-well assay plates containing 1 mL of sterile water in each well. Each well contained 5 larvae. Compound dilutions were made in DMSO, topped with sterile NYSM broth and applied to each assay well. The final DMSO concentration was 1% in each assay well. Larval mortality was scored for each well at 24-hour timepoints after application.
Heat treatments. Samples were heated in 1.5-mL microfuge tubes in a standard laboratory heat block at the indicated temperature and time.
The EtOAc fraction was redissolved in MeOH and subjected to chromatographic fractionation (FIG. 11C) using preparative reversed-phase HPLC (Phenomenex Luna phenylhexyl, 21.2 mm×15 cm, 5 μm, 20 mL/min, isocratic elution with 80% H2O/MeCN for 2 min followed by gradient elution from 80% H2O/MeCN to 100% MeCN over 30 min then isocratic elution with 100% MeCN for 5 min) to yield 30 fractions. The preparative HPLC fractions (at concentrations of 200 μg/mL and 20 μg/mL) were tested against Aedes aegypti.

[3] = test system: Chrysodeixis includens (soybean looper); assay: Lepidopteran diet overlay bioassay; conditions: in Glycine max, 168 h, read-out: Mortalities (%) after 7 days of treatment (Abbott’s Correction), SBL
Description: as §1

[4] = test system: Agrotis ipsilon (black cutworm); assay: Lepidopteran diet overlay bioassay
Description: as §1

[5] = test system: Diatraea grandiosella (southwestern corn borer); assay: Lepidopteran diet overlay bioassay; conditions: in Zea mays, 168 h, read-out: Mortalities (%) after 7 days of treatment (Abbott’s Correction), SWCB
Description: as §1

[6] = test system: Spodoptera eridania (southern armyworm); assay: Lepidopteran diet overlay bioassay; conditions: 168 h, read-out: Mortalities (%) after 7 days of treatment (Abbott’s Correction), SAW
Description: as §1

[7] = test system: Helicoverpa zea (corn earworm); assay: Lepidopteran diet overlay bioassay; conditions: 168 h, read-out: Mortalities (%) after 7 days of treatment (Abbott’s Correction), CEW
Description: as §1

[8] = test system: Diatraea saccharalis (sugarcane borer); assay: Lepidopteran diet overlay bioassay; conditions: 168 h, read-out: Mortalities (%) after 7 days of treatment (Abbott’s Correction), SCB
Description: as §1

[9] = test system: Cydia pomonella (codling moth); assay: Lepidopteran diet overlay bioassay; conditions: 168 h, read-out: Mortalities (%) after 7 days of treatment (Abbott’s Correction), CM
Description: as §1

[10] = test system: Spodoptera exigua (beet armyworm); assay: whole plant or invertebrate
Description: as §1

[11] = test system: Anticarsia gemmatalis (velvetbean caterpillar); assay: whole plant or invertebrate
Description: as §1

[12] = test system: Heliothis virescens (tobacco budworm); assay: whole plant or invertebrate
Description: as §1, §2

[13] = test system: Spodoptera frugiperda (fall armyworm); assay: whole plant or invertebrate
Description: as §1, §2

[14] = test system: Drosophila suzukii (spotted wing Drosophila); assay: Drosophila suzukii diet incorporation assay; type: in vivo; conditions: 100, 500, 1000 μg/mL
Description: During the development of embodiments of the technology described herein, experiments were conducted to assess the activity of 3,3′-diindolylmethane against Drosophila suzukii. […] A1X=100 μg/mL; A5X=500 μg/mL; A10X=1000 μg/mL. Each concentration was tested with 10 vials containing 20 D. suzukii L2 larvae. “Dpi” indicates days post infestation (0 dpi is the day of egg-laying).

[15] = test system: Ostrinia nubilalis (European corn borer); assay: Lepidopteran diet overlay bioassay
Description: as §1, §2

[16] = test system: Plutella xylostella (diamondback moth); assay: Lepidopteran diet overlay bioassay
Description: as §1, §2

[17] = read-out: LC50 (representative curve fit)
[18] = Agrotis ipsilon, 168 h, read-out: Mortalities (%) after 7 days of treatment (Abbott’s Correction), BCW
[19] = Spodoptera exigua, 168 h, read-out: Mortalities (%) after 7 days of treatment (Abbott’s Correction), BAW
[20] = Anticarsia gemmatalis, 168 h, read-out: Mortalities (%) after 7 days of treatment (Abbott’s Correction), VBC
[21] = Heliothis virescens, 168 h, read-out: Mortalities (%) after 7 days of treatment (Abbott’s Correction), TBW
[22] = Heliothis virescens, 168 h, read-out: Mortality, Heliothis virescens (tobacco budworm)
[23] = Spodoptera frugiperda, 168 h, read-out: Mortalities (%) after 7 days of treatment (Abbott’s Correction), FAW
[24] = Spodoptera frugiperda, 168 h, read-out: Mortality, Spodoptera frugiperda (fall armyworm)
[25] = Ostrinia nubilalis, 168 h, read-out: Mortality, Ostrinia nubilalis (European corn borer)
[26] = Plutella xylostella, 168 h, read-out: Mortalities (%) after 7 days of treatment (Abbott’s Correction), DBM
[27] = Plutella xylostella, 168 h, read-out: Mortality, Plutella xylostella (diamondback moth)

## c1ccc2c(Cc3c[nH]c4ccccc34)c[nH]c2c1 [3,3′-diindolylmethane, 3,3′-Diindolylmethane]
[1]; 39.06 μg/mL
  Mortality, Trichoplusia ni (cabbage looper): 3.00%
[1]; 156.25 μg/mL
  Mortality, Trichoplusia ni (cabbage looper): 22.95%
[1]; 156.25 μg/mL, diet overlay
  Mortalities (%) after 7 days of treatment (Abbott’s Correction), CL: 41.4%
[1]; 625 μg/mL
  Mortality, Trichoplusia ni (cabbage looper): 44.60%
[1]; 625 μg/mL, diet overlay
  Mortalities (%) after 7 days of treatment (Abbott’s Correction), CL: 72.4%
[1]; 2500 μg/mL
  Mortality, Trichoplusia ni (cabbage looper): 93.25%
[1]; 2500 μg/mL, diet overlay
  Mortalities (%) after 7 days of treatment (Abbott’s Correction), CL: 93.1%
[1]; diet overlay
  activity against Trichoplusia ni: active; also recorded: dose-dependent activity
[2]; [17]
  LC50: 7.5 µg/mL (≈ 30.4 µM)
Aedes aegypti larvae; [17]
  LC50: 10.2 µg/mL (≈ 41.4 µM)
Aedes aegypti larvae; read-out: mean LC50
  LC50: 7.5 ± 3 µg/mL (≈ 30.4 µM)
Aedes aegypti larvae; in vivo
  activity against Aedes aegypti larvae: exhibited larvicidal activity
[3]
  mortality at 156.25 µg/mL: 26.7%
  mortality at 625 µg/mL: 50%
  mortality at 2500 µg/mL: 80%
[4]; [18]
  mortality at 156.25 µg/mL: 0%
  mortality at 625 µg/mL: 26.7%
  mortality at 2500 µg/mL: 20%
[4]; diet overlay
  activity against A. ipsilon: low or not observed
[5]
  mortality at 156.25 µg/mL: 46.7%
  mortality at 625 µg/mL: 90%
  mortality at 2500 µg/mL: 83.3%
[6]
  mortality at 156.25 µg/mL: 22.6%
  mortality at 625 µg/mL: 100%
  mortality at 2500 µg/mL: 100%
[7]
  mortality at 156.25 µg/mL: 40.6%
  mortality at 625 µg/mL: 50%
  mortality at 2500 µg/mL: 90.6%
[8]
  mortality at 156.25 µg/mL: 100%
  mortality at 625 µg/mL: 100%
  mortality at 2500 µg/mL: 100%
[9]
  mortality at 156.25 µg/mL: 21.4%
  mortality at 625 µg/mL: 50%
  mortality at 2500 µg/mL: 39.3%
[10]; [19]
  mortality at 156.25 µg/mL: 71.9%
  mortality at 625 µg/mL: 93.8%
  mortality at 2500 µg/mL: 71.9%
[10]; diet overlay
  activity against Spodoptera exigua: active; also recorded: dose-dependent activity
[11]; [20]
  mortality at 156.25 µg/mL: 100%
  mortality at 625 µg/mL: 70%
  mortality at 2500 µg/mL: 96.7%
[11]; diet overlay
  activity against Anticarsia gemmatalis: active; also recorded: dose-dependent activity
[12]; [21]
  mortality at 156.25 µg/mL: 74.2%
  mortality at 625 µg/mL: 74.2%
  mortality at 2500 µg/mL: 87.1%
[12]; [22]
  mortality at 9.77 µg/mL: 3.16%
  mortality at 39.06 µg/mL: 40.9%
  mortality at 156.25 µg/mL: 85.2%
  mortality at 625 µg/mL: 93.8%
  mortality at 2500 µg/mL: 83.3%
[12]; diet overlay
  activity against tobacco budworm: active; also recorded: dose-dependent activity
[13]; [23]
  mortality at 156.25 µg/mL: 40%
  mortality at 625 µg/mL: 63.3%
  mortality at 2500 µg/mL: 96.7%
[13]; [24]
  mortality at 9.77 µg/mL: 4.1%
  mortality at 39.06 µg/mL: 2.15%
  mortality at 156.25 µg/mL: 79%
  mortality at 625 µg/mL: 85.1%
  mortality at 2500 µg/mL: 95.7%
[13]; diet overlay
  activity against Spodoptera frugiperda: active; also recorded: dose-dependent activity
[14]
  egg-to-adult survival: not affected
  insecticidal activity against spotted wing Drosophila: did not display insecticidal activity
[14]; L2 larvae, one-way ANOVA
  eclosion rate: not affected
  pupation rate: not affected
[15]; [25]
  mortality at 9.77 µg/mL: 2.08%
  mortality at 39.06 µg/mL: 2.08%
  mortality at 156.25 µg/mL: 4.17%
  mortality at 625 µg/mL: 6.25%
  mortality at 2500 µg/mL: 4.17%
[15]; diet overlay
  activity against O. nubilalis: low or not observed
[16]; [26]
  mortality at 156.25 µg/mL: 19.4%
  mortality at 625 µg/mL: 6.5%
  mortality at 2500 µg/mL: 19.4%
[16]; [27]
  mortality at 9.77 µg/mL: 1.01%
  mortality at 39.06 µg/mL: 1.07%
  mortality at 156.25 µg/mL: 7.39%
  mortality at 625 µg/mL: 15.7%
  mortality at 2500 µg/mL: 43.4%
[16]; diet overlay
  activity against P. xylostella: low or not observed

## c1ccc2[nH]c(Cc3c[nH]c4ccccc34)cc2c1 [3-((1H-indol-2-yl)methyl)-1H-indole]
[2]; [17]
  LC50: 1.5 µg/mL (≈ 6.09 µM)
[2]; read-out: mean LC50
  LC50: 0.95 ± 0.75 µg/mL (≈ 3.86 µM)
Aedes aegypti larvae; [17]
  LC50: 5.8 µg/mL (≈ 23.5 µM)
Aedes aegypti larvae; read-out: mean LC50
  LC50: 6.3 ± 2.1 µg/mL (≈ 25.6 µM)
